# Measured values taken from PMC11600510 (Journal of Chemical Information and Modeling, 2024).
# Legend:
# [1] = test system: E. coli WP2 uvrA strain; assay: Microbial mutagenicity assay (Ames test); conditions: positive control
# [2] = molecular target: T1, Spike RBD/ACE2 (19–615) interaction (Severe acute respiratory syndrome coronavirus 2, UniProt P0DTC2); assay: cell-based; format: cell-based, SARS-CoV-2
# T1 construct: S protein RBD (aa residues 319–541) of SARS-CoV-2; expressed in transfected cells; host or cells: HEK293T
# [3] = test system: SARS-CoV-2; format: cell-based
# [4] = test system: SARS-CoV-2 pseudovirus; assay: microbe, parasite or virus in culture; format: cell-based; conditions: Severe acute respiratory syndrome-related coronavirus, SH-SY5Y, read-out: IC50, inhibition of pseudovirus cell entry
# [5] = test system: SARS-CoV-2; assay: microbe, parasite or virus in culture; format: cell-based
# [6] = test system: Vero E6 cells; assay: MTT toxicity assay in Vero E6 cells; format: cell-based; conditions: 48 h
# Protocol: Chemical compounds were dissolved and serially diluted in DMSO. Their cytotoxicity was assessed using an MTT assay. Briefly, HEK293T, SH-SY5Y or Vero E6 cells were cultured in 96-well plates (4 × 10^4 cells/well) at 37 °C in a 5% CO2 atmosphere. Cells were treated for 48 h with varying concentrations of the compounds (100–0.1 μM) or solvent. […] Treated cells were incubated for 4 h with […] MTT (Applichem). After incubation, the MTT-containing medium was removed and formazan crystals were dissolved in DMSO. The optical density (OD) of formazan solution at 570 and 630 nm was measured in a SPARK plate reader (Tecan).
# [7] = HEK-293T, 48 h, read-out: suppression of Spike RBD/ACE2 (19–615) interaction
compound,measurement,setting,value
O=[N+]([O-])c1ccc(/C=C/C[n+]2cn(Cc3ccc4ccccc4c3)c3ccccc32)cc1.[Br-],melting point,,189 to 191 °C
O=[N+]([O-])c1ccc(/C=C/C[n+]2cn(Cc3ccc(-c4ccccc4)cc3)c3ccccc32)cc1.[Br-],melting point,,236 to 238 °C (dec.)
COc1ccc(Cn2c[n+](C/C=C/c3ccc([N+](=O)[O-])cc3)c3ccccc32)cc1OC.[Br-],melting point,,146 to 148 °C (dec.)
COc1cccc2c1[n+](C/C=C/c1ccc(Cl)cc1)cn2Cc1ccc(-c2ccccc2)cc1.[Br-],melting point,,205 to 206 °C
COc1cccc2c1[n+](C/C=C/c1ccc(Cl)cc1)cn2Cc1ccc2ccccc2c1.[Br-],melting point,,228 to 229 °C
"Nc1ccc2cc3ccccc3cc2c1 [2-aminoanthracene, reference compound]",mean revertants,"[1]; 10 μg/plate, +S9",>300
"O=[N+]([O-])c1cccc2c1ncn2Cc1ccc2ccccc2c1 [CKP-20, 1-(Naphthalen-2-ylmethyl)-4-nitro-1H-benzo[d]imidazole]",activity on Spike RBD/ACE2 (19–615) interaction (in words),[2],showed activity
same,inhibition at 50 µM,[2]; [7],51%
"c1ccc2cc(Cn3cnc4ccccc43)ccc2c1 [CKP-22, 1-(Naphthalen-2-ylmethyl)-1H-benzo[d]imidazole]",reduction of SARS-CoV-2 levels (viral load) in cell culture supernatant,[3],68%
same,IC50,[4],49 ± 2.5 µM
same,melting point,,139 to 140 °C
same,IC50,[2],55 µM
same,concentration-dependent suppression of Spike RBD/ACE2 (19–615) interaction,[2],suppressed Spike RBD/ACE2 (19–615) interaction in a concentration-dependent manner
same,effect on Spike RBD/ACE2 (19–615) interaction,[2],suppressed the interaction
same,inhibition at 50 µM,[2]; [7],81%
same,prevention of infection from the original SARS-CoV-2 in vitro,[5],strongly prevented infection
same,reduction of the cytopathic effect (CPE) of the virus,[5],approximately 90%
"c1ccc(-c2ccc(Cn3cnc4ccccc43)cc2)cc1 [CKP-23, 1-([1,1′-Biphenyl]-4-ylmethyl)-1H-benzo[d]imidazole]",melting point,,184 to 186 °C
"COc1ccc(Cn2cnc3ccccc32)cc1OC [CKP-24, 1-(3,4-Dimethoxybenzyl)-1H-benzo[d]imidazole]",melting point,,131 to 132 °C
"Oc1cccc2c1ncn2Cc1ccc2ccccc2c1 [CKP-26, 1-(Naphthalen-2-ylmethyl)-1H-benzo[d]imidazol-4-ol]",activity on Spike RBD/ACE2 (19–615) interaction (in words),[2],"none of the 4-hydroxy congeners of 28 and 29, compounds 31 (CKP-26) and 32 (CKP-30) maintained inhibitory activity"
"COc1cccc2c1ncn2Cc1ccc(-c2ccccc2)cc1 [CKP-27, 1-([1,1′-Biphenyl]-4-ylmethyl)-4-methoxy-1H-benzo[d]imidazole]",effect on viral load in the cell culture supernatant (in words),[3],reduced the viral load
same,melting point,,150 to 151 °C
same,inhibition at 25 µM,[2]; [7],72%
same,effect on the cytopathic effect of SARS-CoV-2 (in words),[5],consistently reduced the cytopathic effect
"Oc1cccc2c1ncn2Cc1ccc(-c2ccccc2)cc1 [CKP-30, 1-([1,1′-Biphenyl]-4-ylmethyl)-1H-benzo[d]imidazol-4-ol]",melting point,,258 to 259 °C
same,activity on Spike RBD/ACE2 (19–615) interaction (in words),[2],"none of the 4-hydroxy congeners of 28 and 29, compounds 31 (CKP-26) and 32 (CKP-30) maintained inhibitory activity"
"Clc1ccc(/C=C/C[n+]2cn(Cc3ccc4ccccc4c3)c3ccccc32)cc1.[Br-] [CKP-32, (E)-3-(3-(4-Chlorophenyl)allyl)-1-(naphthalen-2-ylmethyl)-1H-benzo[d]imidazol-3-ium Bromide]",melting point,,166 to 167 °C
same,toxicity against Vero E6 cells,[6],toxic
same,inhibition at 10 µM,[2]; [7],70%
"Oc1ccc(Cn2cnc3ccccc32)cc1O [CKP-35, 4-((1H-Benzo[d]imidazol-1-yl)methyl)benzene-1,2-diol]",melting point,,188 to 190 °C (dec.)
"c1cnc2cc(Cn3cnc4ccccc43)ccc2c1 [CKP-36, 7-((1H-Benzo[d]imidazol-1-yl)methyl)quinoline]",melting point,,166 to 168 °C (dec.)
"COc1cccc2c1[n+](C/C=C/c1ccc([N+](=O)[O-])cc1)cn2Cc1ccc(-c2ccccc2)cc1.[Br-] [CKP-40, (E)-1-([1,1′-Biphenyl]-4-ylmethyl)-4-methoxy-3-(3-(4-nitrophenyl)allyl)-1H-benzo[d]imidazol-3-ium Bromide]",melting point,,203 to 204 °C
same,activity on Spike RBD/ACE2 (19–615) interaction (in words),[2],active
same,inhibition at 25 µM,[2]; [7],14%
same,effect on the cytopathic effect of SARS-CoV-2 (in words),[5],not protective against SARS-CoV-2
"COc1cccc2c1[n+](C/C=C/c1ccc([N+](=O)[O-])cc1)cn2Cc1ccc2ccccc2c1.[Br-] [CKP-42, (E)-4-Methoxy-1-(naphthalen-2-ylmethyl)-3-(3-(4-nitrophenyl)allyl)-1H-benzo[d]imidazol-3-ium Bromide]",melting point,,227 to 228 °C
same,activity on Spike RBD/ACE2 (19–615) interaction (in words),[2],active
same,inhibition at 10 µM,[2]; [7],74%
"COc1cccc2c1ncn2Cc1ccc2cccnc2c1 [CKP-44, 7-((4-Methoxy-1H-benzo[d]imidazol-1-yl)methyl)quinoline]",melting point,,161 to 162 °C
same,activity on Spike RBD/ACE2 (19–615) interaction (in words),[2],did not exhibit any effect
"c1ccc2cc(CCn3cnc4ccccc43)ccc2c1 [CKP-46, 1-(2-(Naphthalen-2-yl)ethyl)-1H-benzo[d]imidazole]",activity on Spike RBD/ACE2 (19–615) interaction (in words),[2],activity was retained
same,inhibition at 1 µM,[2]; [7],20%
"O=[N+]([O-])c1cccc2c1ncn2Cc1ccc2cccnc2c1 [CKP-48, 7-((4-Nitro-1H-benzo[d]imidazol-1-yl)methyl)quinoline]",activity on Spike RBD/ACE2 (19–615) interaction (in words),[2],showed activity
same,inhibition at 50 µM,[2]; [7],36%
"Nc1cccc2c1ncn2Cc1ccc2cccnc2c1 [CKP-49, 1-(Quinolin-7-ylmethyl)-1H-benzo[d]imidazol-4-amine]",effect on viral load in the cell culture supernatant (in words),[3],reduced the viral load
same,inhibition at 50 µM,[2]; [7],30%
same,effect on the cytopathic effect of SARS-CoV-2 (in words),[5],consistently reduced the cytopathic effect
"O=C(c1ccc(-c2ccccc2)cc1)n1cnc2ccccc21 [compound 5260662, 1-(4-biphenylylcarbonyl)-1H-benzimidazole]",concentration-dependent suppression of Spike RBD/ACE2 (19–615) interaction,[2],suppressed Spike RBD/ACE2 (19–615) interaction in a concentration-dependent manner
same,effect on Spike RBD/ACE2 (19–615) interaction,[2],suppressed the interaction
"Cc1ccc[n+](CC(=O)c2ccc3c(c2)Cc2ccccc2-3)c1C.[Br-] [compound 5315079, 1-[2-(9H-fluoren-2-yl)-2-oxoethyl]-2,3-dimethylpyridinium bromide]",concentration-dependent suppression of Spike RBD/ACE2 (19–615) interaction,[2],suppressed Spike RBD/ACE2 (19–615) interaction in a concentration-dependent manner
same,effect on Spike RBD/ACE2 (19–615) interaction,[2],suppressed the interaction
"COc1ccc(-c2ccccc2)cc1NCc1ccc2c(c1)OCO2 [compound 5465521, (1,3-benzodioxol-5-ylmethyl)(4-methoxy-3-biphenylyl)amine]",concentration-dependent suppression of Spike RBD/ACE2 (19–615) interaction,[2],suppressed Spike RBD/ACE2 (19–615) interaction in a concentration-dependent manner
same,effect on Spike RBD/ACE2 (19–615) interaction,[2],suppressed the interaction
"O=C(O)c1ccc2c(c1)C(=O)N(c1ccc(-c3nnc(-c4ccccc4)o3)cc1)C2=O [compound 5733393, 1,3-dioxo-2-[4-(5-phenyl-1,3,4-oxadiazol-2-yl)phenyl]-5-isoindolinecarboxylic acid]",effect on Spike RBD/ACE2 (19–615) interaction,[2],suppressed the interaction
"O=C(C=Cc1ccc(NC(=O)c2ccccc2-c2ccccc2C(=O)O)cc1)c1ccccc1 [compound 5755483, 2'-({[4-(3-oxo-3-phenyl-1-propen-1-yl)phenyl]amino}carbonyl)-2-biphenylcarboxylic acid]",effect on Spike RBD/ACE2 (19–615) interaction,[2],suppressed the interaction
"O=C1CC(c2ccc3ccccc3c2)c2ccc3ccccc3c2N1 (stereo not shown) [compound 5979742, 4-(2-naphthyl)-3,4-dihydrobenzo[h]quinolin-2(1H)-one]",effect on Spike RBD/ACE2 (19–615) interaction,[2],suppressed the interaction
"O=C(c1ccc(NC(=O)C(c2ccccc2)c2ccccc2)cc1)c1ccc(C(=O)O)c(C(=O)O)c1 [compound 6048589, 4-{4-[(diphenylacetyl)amino]benzoyl}phthalic acid]",effect on Spike RBD/ACE2 (19–615) interaction,[2],suppressed the interaction
"O=C(O)c1ccccc1C(=O)Nc1ccc(Oc2ccc3ccccc3c2)cc1 [compound 6052953, 2-({[4-(2-naphthyloxy)phenyl]amino}carbonyl)benzoic acid]",concentration-dependent suppression of Spike RBD/ACE2 (19–615) interaction,[2],suppressed Spike RBD/ACE2 (19–615) interaction in a concentration-dependent manner
same,effect on Spike RBD/ACE2 (19–615) interaction,[2],suppressed the interaction
"O=c1c(Oc2ccc(-c3ccccc3)cc2)coc2cc(O)ccc12 [compound 6659989, 3-(4-biphenylyloxy)-7-hydroxy-4H-chromen-4-one]",IC50,[4],3.2 ± 0.2 µM
same,concentration-dependent suppression of Spike RBD/ACE2 (19–615) interaction,[2],suppressed Spike RBD/ACE2 (19–615) interaction in a concentration-dependent manner
same,effect on Spike RBD/ACE2 (19–615) interaction,[2],suppressed the interaction
"Nc1nc(-c2ccccc2)c(-c2ccc(-c3ccccc3)cc2)s1 [compound 6954709, 5-(4-biphenylyl)-4-phenyl-1,3-thiazol-2-amine]",effect on Spike RBD/ACE2 (19–615) interaction,[2],suppressed the interaction
"COS(C)(=O)=O [methyl methanesulfonate, reference compound]",mean revertants,"[1]; 2.5 μL/plate, –S9",>300
